Test results published in US9226506B2, “Methods of weed control in chicory” (Dow AgroSciences LLC, priority 2013, dated 2016).

Assays:
chicory = test system: chicory; design: species or system Cichorium intybus; settings: in vivo
Description: (§1) Field trials were conducted in Northern France and Belgium, both of which are major areas for root chicory and whitloof chicory production. Trials were conducted in accordance with EPPO standard PP 1/99(3) entitled “Weeds in Roots Vegetables,” PP 1/152(4) entitled “Design and Analysis of Efficacy Evaluation Trials,” PP 1/135(3) entitled “Phytotoxic Assessment,” and PP 1/181(4) entitled “Conduct and Reporting of Efficacy Evaluation Trials Including Good Experimental Practice,” all of which are incorporated herein by reference in their entirety.
(§2) Application to all field trials was made using a small plot precision sprayer operating at between 160-400 kilopascals (kPa) pressure, delivering a spray volume of 150-400 liters per hectare (L/ha). Nozzles were of a flat fan type. Trial plot size ranged from 4.5×2.5 square meters (m^2) to 10.5×2.5 m^2. Plots were replicated 3 or 4 times and were arranged in a randomized block design within each trial. […]
(§3) In whitloof chicory (Cichorium intybus), treatments were evaluated which included either two or three post-emergence applications of herbicide. Multiple applications of herbicide were evaluated for their ability to control weed emergence during the extended period of time required for chicory cultivation. […]

[1] = test system: Artemisia biennis (biennial wormwood), ARTRI; assay: Field trial, post-emergence weed control in chicory; assay type: in vivo; settings: 3 trials, 30 days after last application
Description: as §1
(§4) Application to all field trials was made using a small plot precision sprayer operating at between 160-400 kilopascals (kPa) pressure, delivering a spray volume of 150-400 liters per hectare (L/ha). Nozzles were of a flat fan type. Trial plot size ranged from 4.5×2.5 square meters (m^2) to 10.5×2.5 m^2. Plots were replicated 3 or 4 times and were arranged in a randomized block design within each trial. All trials received a pre-emergence application of BONALAN® at 6 L/ha (benfluralin; 180 grams active ingredient per liter (g ai/L); commercially available from Dow AgroSciences LLC) with incorporation to prevent the emergence of grasses which could complicate the assessment of broadleaf control.
(§5) In whitloof chicory (Cichorium intybus), treatments were evaluated which included either two or three post-emergence applications of herbicide. Multiple applications of herbicide were evaluated for their ability to control weed emergence during the extended period of time required for chicory cultivation. Trials included different combinations of application rate and application timing. Broadcast applications were made from May to July, covering a range of possible application timings. Penoxulam was applied at a maximum total rate of 15 g/ha per season, applied in two or three applications with a minimum of seven days between applications. Treatment with penoxsulam involved application of either BOA® or VIPER® (2.14% weight per weight (w/w) oil dispersions of penoxsulam commercially available from Dow AgroSciences LLC). Trials were also conducted using another ALS mode-of-action herbicide (i.e., the sulfonylurea triflusulfuron-methyl). Triflusulfuron-methyl was applied at a maximum total rate of 30 g/ha per season, applied in two or three applications with a minimum of seven days between applications. Treatment with triflusulfuron-methyl involved application of SAFARI® (triflusulfuron-methyl; commercially available from DuPont Crop Protection).
(§6) Prior to treatment application, assessments of weed populations (number of plants per m^2) were carried out using a quadrant square and an appropriate number of sampling points.
(§7) 1) Visual rating in percent of the overall volume reduction of vegetation for each species compared to the nearest untreated plot (Plant/Control/% visual; 0%=no control; 100%=all weeds dead). Assessments of this type were performed by Dow AgroSciences LLC in France.
(§8) Assessments of weed control were carried out at 14, 28, 56 and 84 days or longer after each application timing (DAAA=days after application A, DAAB=days after application B or DAAC=days after application C).

[2] = test system: Matricaria recutita (wild chamomile), MATCH; assay: as above; assay type: in vivo; settings: 2-3 trials (number of trials in parentheses in cell), 30 days after last application
Description: as §1, §4, §5, §6, §7, §8

[3] = test system: Galinsoga ciliata (shaggy soldier) / Galinsoga parviflora (potato weed), GASCI-GASPA; assay: as above; assay type: in vivo; settings: 4 trials, 30 days after last application
Description: as §1, §4, §5, §6, §7, §8

[4] = test system: Coronopus didymus (lesser swinecress), COPDI; assay: as above; assay type: in vivo; settings: 2 trials, 30 days after last application
Description: as §1, §4, §5, §6, §7, §8

[5] = test system: Capsella bursa-pastoris (shepherd's purse), CAPBP; assay: as above; assay type: in vivo; settings: 2 trials, 30 days after last application
Description: as §1, §4, §5, §6, §7, §8

[6] = test system: Sonchus sp. (sow-thistle), SONSS; assay: as above; assay type: in vivo; settings: 1 trial, 30 days after last application
Description: as §1, §4, §5, §6, §7, §8

[7] = test system: Senecio vulgaris (common groundsel), SENVU; assay: as above; assay type: in vivo; settings: 1 trial, 30 days after last application
Description: as §1, §4, §5, §6, §7, §8

[8] = test system: Solanum nigrum (black nightshade), SQLNI; assay: as above; assay type: in vivo; settings: 2 trials, 30 days after last application
Description: as §1, §4, §5, §6, §7, §8

undesirable vegetation = assay: Weed control field trials, overall statement; assay type: in vivo; settings: applied post-emergence to the crop and weeds
Description: as §1
as §2, with “m^2.” for “m^2. Plots were replicated 3 or 4 times and were arranged in a randomized block design within each trial.”
as §3
3) Following treatments, the remaining plants were weighed to determine the mass per plant (expressed as g/plant) one month after the last pesticide application. […]

[9] = test system: chicory (varieties Ecrine, Hermès); assay: Chicory leaf development after post-emergence applications; design: species or system Cichorium intybus; settings: in vivo
Description: as §1, §2, §3

[10] = 3 applications 3.73/3.73/3.73 g ai/ha

## COc1cnc(OC)n2nc(NS(=O)(=O)c3c(OCC(F)F)cccc3C(F)(F)F)nc12 [Penoxsulam]
chicory
  crop tolerance: commercially acceptable crop tolerance
  visible crop injury: some visible crop injury
[1]; 2 applications 5.6/5.6 g ai/ha
  % Visual Weed Control: 64.4%
[1]; 2 applications 7.5/7.5 g ai/ha
  % Visual Weed Control: 68.3%
[1]; [10]
  % Visual Weed Control: 68.8%
[1]; 3 applications 5/5/5 g ai/ha
  % Visual Weed Control: 76.4%
[2]; 2 applications 5.6/5.6 g ai/ha
  % Visual Weed Control: 93 (2) %
[2]; 2 applications 7.5/7.5 g ai/ha
  % Visual Weed Control: 93.9 (3) %
[2]; [10]
  % Visual Weed Control: 91.4 (2) %
[2]; 3 applications 5/5/5 g ai/ha
  % Visual Weed Control: 97.2 (3) %
[3]; 2 applications 5.6/5.6 g ai/ha
  % Visual Weed Control: 87.3%
[3]; 2 applications 7.5/7.5 g ai/ha
  % Visual Weed Control: 87.9%
[3]; [10]
  % Visual Weed Control: 95.9%
[3]; 3 applications 5/5/5 g ai/ha
  % Visual Weed Control: 96.7%
[4]; 2 applications 5.6/5.6 g ai/ha
  % Visual Weed Control: 92.4%
[4]; 2 applications 7.5/7.5 g ai/ha
  % Visual Weed Control: 96.25%
[4]; [10]
  % Visual Weed Control: 90.15%
[4]; 3 applications 5/5/5 g ai/ha
  % Visual Weed Control: 93.25%
[5]; 2 applications 5.6/5.6 g ai/ha
  % Visual Weed Control: 100%
[5]; 2 applications 7.5/7.5 g ai/ha
  % Visual Weed Control: 100%
[5]; [10]
  % Visual Weed Control: 100%
[5]; 3 applications 5/5/5 g ai/ha
  % Visual Weed Control: 100%
[6]; 2 applications 5.6/5.6 g ai/ha
  % Visual Weed Control: 86%
[6]; 2 applications 7.5/7.5 g ai/ha
  % Visual Weed Control: 86%
[6]; [10]
  % Visual Weed Control: 86%
[6]; 3 applications 5/5/5 g ai/ha
  % Visual Weed Control: 86%
[7]; 2 applications 5.6/5.6 g ai/ha
  % Visual Weed Control: 50%
[7]; 2 applications 7.5/7.5 g ai/ha
  % Visual Weed Control: 100%
[7]; [10]
  % Visual Weed Control: 60%
[7]; 3 applications 5/5/5 g ai/ha
  % Visual Weed Control: 100%
[8]; 2 applications 5.6/5.6 g ai/ha
  % Visual Weed Control: 66.5%
[8]; 2 applications 7.5/7.5 g ai/ha
  % Visual Weed Control: 100%
[8]; [10]
  % Visual Weed Control: 83.4%
[8]; 3 applications 5/5/5 g ai/ha
  % Visual Weed Control: 83.4%
Undesirable vegetation
  control of undesirable vegetation: good control of undesirable vegetation
[9]
  Average number of leaves (measured 21 DAAC) Average: 7 a
